Measurements published in ChEMBL document CHEMBL1201862, “PubChem BioAssay data set” (2004).
Values joined by “and” are separate entries in the source; they are usually repeats but may differ in a detail not shown here. Identical values can stand only once.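 These data come from cells grown in 96-well plates and exposed to compound for 48 hours at five concentrations. GI50 is the concentration that inhibits growth by half.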 Active and inactive are the calls of the source. No stated cut-off is given here; in the data, active = GI50 up to about 1.1 µM and inactive = higher.

Columns and labels:
Assay in all cases: inhibition of tumour cell growth, NCI panel, 48 h
HOP-92 = tested on: HOP-92
HCT-15 = tested on: HCT-15
SK-MEL-28 = tested on: SK-MEL-28
OVCAR-4 = tested on: OVCAR-4
SF-539 = tested on: SF-539
Hs-578T = tested on: Hs-578T
MOLT-4 = tested on: MOLT-4
786-0 = tested on: 786-0
HOP-62 = tested on: HOP-62
K562 = tested on: K562
UACC-257 = tested on: UACC-257
A549 = tested on: A549
SR = tested on: SR
HL-60 = tested on: HL-60
SK-OV-3 = tested on: SK-OV-3
PC-3 = tested on: PC-3
SK-MEL-5 = tested on: SK-MEL-5
CAKI-1 = tested on: CAKI-1
CCRF-CEM = tested on: CCRF-CEM

Compound | GI50 (HOP-92) | GI50 (HCT-15) | GI50 (SK-MEL-28) | GI50 (OVCAR-4) | GI50 (SF-539) | GI50 (Hs-578T) | GI50 (MOLT-4) | GI50 (786-0) | GI50 (HOP-62) | GI50 (K562) | GI50 (UACC-257) | GI50 (A549) | GI50 (SR) | GI50 (HL-60) | GI50 (SK-OV-3) | GI50 (PC-3) | GI50 (SK-MEL-5) | GI50 (CAKI-1) | GI50 (CCRF-CEM)
BrCc1ccc(CBr)c2c1-c1c(CBr)ccc3ccc(CBr)c-2c13 | > 100 µM (inactive) | > 100 µM | > 100 µM (inactive) | > 100 µM (inactive) | 56.9 µM (inactive) | 53.2 µM (inactive) | 33.8 µM (inactive) | > 100 µM (inactive) | > 100 µM (inactive) | 99.1 µM (inactive) | > 100 µM (inactive) | > 100 µM (inactive) | 46.2 µM (inactive) | 40.6 µM (inactive) | > 100 µM (inactive) | 36.6 µM (inactive) |  |  | 
CC1C2CC(CC(=O)N2)C1(C)C (centres undefined) | > 100 µM (inactive) |  | > 100 µM (inactive) | > 100 µM (inactive) | > 100 µM (inactive) | > 100 µM (inactive) |  | > 100 µM (inactive) | > 100 µM (inactive) | > 100 µM (inactive) | > 100 µM (inactive) | > 100 µM (inactive) |  | > 100 µM (inactive) | > 100 µM (inactive) | > 100 µM (inactive) | > 100 µM (inactive) | > 100 µM (inactive) | > 100 µM (inactive)
O=C1C=Cc2cscc21 | > 100 µM (inactive) | 22.7 µM | 69.8 µM (inactive) | 81.3 µM (inactive) | > 100 µM (inactive) | > 100 µM (inactive) | 14.3 µM (inactive) | 16.4 µM (inactive) | > 100 µM (inactive) | 31.9 µM (inactive) | > 100 µM (inactive) | 62.7 µM (inactive) |  | 29 µM (inactive) | > 100 µM (inactive) | 42 µM (inactive) | 81.7 µM (inactive) | 27.4 µM (inactive) | 22.6 µM (inactive)
CC(=O)CCC1(C(=O)OCC(C)C)CCCC1=O (centres undefined) | 90.6 µM (inactive) | > 100 µM | > 100 µM (inactive) | > 100 µM (inactive) | > 100 µM (inactive) | > 100 µM (inactive) | > 100 µM (inactive) | > 100 µM (inactive) | > 100 µM (inactive) | > 100 µM (inactive) | > 100 µM (inactive) | > 100 µM (inactive) |  | > 100 µM (inactive) | > 100 µM (inactive) | > 100 µM (inactive) | > 100 µM (inactive) | > 100 µM (inactive) | > 100 µM (inactive)
Cc1cc(Cl)ccc1NC(=O)/C(Cl)=C(/Cl)C(=O)O | 22.1 µM (inactive) | 18.7 µM | 22.1 µM (inactive) |  | 23 µM (inactive) | 26.4 µM (inactive) |  | 23.1 µM (inactive) | 22.2 µM (inactive) | 31.8 µM (inactive) | 19.7 µM (inactive) | 48.8 µM (inactive) | 15.1 µM (inactive) | 25.7 µM (inactive) | > 100 µM (inactive) | 21.4 µM (inactive) | 50.7 µM (inactive) | 18.3 µM (inactive) | 17.3 µM (inactive)
O=C(c1ccccc1)n1[nH]c(=O)n(-c2ccc(Cl)cc2)c1=O |  | > 100 µM | > 100 µM (inactive) | > 100 µM (inactive) |  | > 100 µM (inactive) | > 100 µM (inactive) | > 100 µM (inactive) | > 100 µM (inactive) | > 100 µM (inactive) | > 100 µM (inactive) | > 100 µM (inactive) | > 100 µM (inactive) | > 100 µM (inactive) | > 100 µM (inactive) | > 100 µM (inactive) | > 100 µM (inactive) | > 100 µM (inactive) | > 100 µM (inactive)
Cc1ccc(/C=C2/N/C(=N\N=C/C(O)C(O)C(O)C(O)CO)NC2=O)cc1 (centres undefined) | > 100 µM (inactive) | > 100 µM and 69.8 µM | > 100 µM (inactive) |  | > 100 µM (inactive) | > 100 µM (inactive) |  | > 100 µM (inactive) | > 100 µM (inactive) |  | > 100 µM (inactive) | > 100 µM (inactive) | > 100 µM (inactive) | > 100 µM (inactive) | > 100 µM (inactive) | > 100 µM (inactive) | > 100 µM (inactive) | > 100 µM (inactive) | 95.3 µM (inactive)
COc1cc(/C=C/c2ccccn2)cc(OC)c1OC | > 10 µM (inactive) | > 10 µM | > 10 µM (inactive) | > 10 µM (inactive) | > 10 µM (inactive) | > 10 µM (inactive) | > 10 µM (inactive) | > 10 µM (inactive) | > 10 µM (inactive) | > 10 µM (inactive) | > 10 µM (inactive) | > 10 µM (inactive) |  | > 10 µM (inactive) | > 10 µM (inactive) | > 10 µM (inactive) | > 10 µM (inactive) | > 10 µM (inactive) | > 10 µM (inactive)
O=C(Oc1c(Br)cc(Br)cc1C(=O)Oc1ccccc1)C(=O)Oc1c(Br)cc(Br)cc1C(=O)Oc1ccccc1 | 12 µM (inactive) | 20.7 µM | 28.7 µM (inactive) |  | 19.7 µM (inactive) | 34.8 µM (inactive) | 14.9 µM (inactive) | 19.6 µM (inactive) | 16.2 µM (inactive) | 12.7 µM (inactive) | 39 µM (inactive) | 14.5 µM (inactive) | 18.5 µM (inactive) | < 0.01 µM (active) | 33.8 µM (inactive) | 20.2 µM (inactive) | 17.3 µM (inactive) | 19.7 µM (inactive) | 
O=C1NC(N2CCOCC2)=N/C1=C\c1ccccc1O | > 100 µM (inactive) | > 100 µM | > 100 µM (inactive) | > 100 µM (inactive) | > 100 µM (inactive) | > 100 µM (inactive) | > 100 µM (inactive) | > 100 µM (inactive) | > 100 µM (inactive) | > 100 µM (inactive) | > 100 µM (inactive) | > 100 µM (inactive) |  | 58.1 µM (inactive) | > 100 µM (inactive) | > 100 µM (inactive) | > 100 µM (inactive) | > 100 µM (inactive) | > 100 µM (inactive)
COc1ccccc1Cn1c2c(c3cc(O)ccc31)C(=O)c1ccccc1C2=O |  | 90.2 µM | 76.4 µM (inactive) | 3.21 µM (inactive) | 12.7 µM (inactive) | 36.6 µM (inactive) | > 100 µM (inactive) | 13.3 µM (inactive) | 16.1 µM (inactive) | > 100 µM (inactive) | > 100 µM (inactive) | 19.5 µM (inactive) | 52.8 µM (inactive) | > 100 µM (inactive) | 2.42 µM (inactive) | 8.49 µM (inactive) | 37.2 µM (inactive) | 16.7 µM (inactive) | 37.5 µM (inactive)
O=C1c2cc3c(cc2CC12Cc1cc4c(cc1C2=O)CCC4)CCC3 |  | > 100 µM | > 100 µM (inactive) |  | > 100 µM (inactive) | > 100 µM (inactive) | > 100 µM (inactive) | > 100 µM (inactive) | > 100 µM (inactive) | > 100 µM (inactive) | > 100 µM (inactive) | > 100 µM (inactive) | > 100 µM (inactive) | > 100 µM (inactive) | > 100 µM (inactive) | > 100 µM (inactive) | > 100 µM (inactive) | > 100 µM (inactive) | > 100 µM (inactive)
Nc1nc(Cl)c(N)c(NCC2(CO)CCC(CCc3ccccc3)C2)n1 (centres undefined) | 19.3 µM (inactive) | 16.1 µM | 14.6 µM (inactive) | 17.3 µM (inactive) | 15.5 µM (inactive) | 21.1 µM (inactive) | 0.759 µM (active) | 20.4 µM (inactive) | 17 µM (inactive) | 0.183 µM (active) | 0.461 µM (active) | 11.8 µM (inactive) |  | 3.37 µM (inactive) | 22.3 µM (inactive) | 17.3 µM (inactive) | 0.033 µM (active) | 1.47 µM (inactive) | 6.21 µM (inactive)
O=C1NC(c2c(Cl)cccc2Cl)Nc2ccccc21 (centres undefined) | 25.4 µM (inactive) | 49.7 µM | 73.3 µM (inactive) | > 100 µM (inactive) | 47.1 µM (inactive) | 19.6 µM (inactive) | 47.6 µM (inactive) | 54.3 µM (inactive) | 81.7 µM (inactive) |  | > 100 µM (inactive) | 54.6 µM (inactive) |  | 18 µM (inactive) | > 100 µM (inactive) | 71.1 µM (inactive) | 27 µM (inactive) | 18.5 µM (inactive) | > 10 µM (inactive)
Clc1nc(Cl)c(CBr)c(Cl)n1 | 2.28 µM (inactive) | 2.65 µM | 5.74 µM (inactive) | 6.34 µM (inactive) | 2.99 µM (inactive) | 3.8 µM (inactive) | 1.45 µM (inactive) | 2.24 µM (inactive) | 5.04 µM (inactive) | 2 µM (inactive) | 15 µM (inactive) | 16 µM (inactive) | 1.74 µM (inactive) |  | 15.2 µM (inactive) | 6.19 µM (inactive) | 4.01 µM (inactive) | 10.9 µM (inactive) | 0.427 µM (active)
FC(F)(Sc1ncc[nH]1)c1nc2ccccc2o1 | > 100 µM (inactive) | > 100 µM | > 100 µM (inactive) | > 100 µM (inactive) | > 100 µM (inactive) | 62.7 µM (inactive) | > 100 µM (inactive) | > 100 µM (inactive) | > 100 µM (inactive) | > 100 µM (inactive) | > 100 µM (inactive) | > 100 µM (inactive) | > 100 µM (inactive) |  | > 100 µM (inactive) | > 100 µM (inactive) | > 100 µM (inactive) | > 100 µM (inactive) | > 100 µM (inactive)
CC(C)(C)c1ccc(O)c(C[N+](C)(C)C)c1 | > 100 µM (inactive) | > 100 µM | > 100 µM (inactive) | > 100 µM (inactive) | > 100 µM (inactive) | > 100 µM (inactive) | > 100 µM (inactive) | > 100 µM (inactive) | > 100 µM (inactive) | 95.5 µM (inactive) |  | > 100 µM (inactive) | > 100 µM (inactive) |  | > 100 µM (inactive) | > 100 µM (inactive) | 49.4 µM (inactive) | > 100 µM (inactive) | > 100 µM (inactive)
